Six compounds from patent US7521418B2, “Use of a polyene macrolide antifungal agent in combination with a glycopeptide antibacterial agent” (Theravance, Inc., priority 2003, dated 2009) can be followed below.

For experiment [1], the system named is C. krusei ATCC 32672. Briefly: Checkerboard MIC assay, FICI. Format: cell-based, Candida krusei. From the text: (§1) The following assay was used to determine the minimum inhibitory concentration (MIC) and fractional inhibitory concentration index (FICI) for combinations of an antifungal agent and a glycopeptide antibacterial agent. This assay and methods for calculating FICI are well known in the art. See, for example, Eliopoulos, E. G. and R. Moellering, Jr. “Antimicrobial Combinations” in Antibiotics in Laboratory Medicine, edited by V. Lorian, 4th Ed., Williams & Wilkins, Baltimore, MD, pp. 330-396 (1996); […] et al., Antimicrobial Agents and Chemotherapy 47(4):1416-1418 (2003); or […] et al., Antimicrobial Agents and Chemotherapy 46(10):3323-3326 (2002). Procedures, protocols, supplies and equipment used in this assay follow the recommendations approved and published by the National Committee for Clinical Laboratory Standards (NCCLS), Wayne, Pa. as described in NCCLS 2003, “Reference Method for Broth Dilution Antimicrobial Susceptibility Tests for Bacteria that Grow Aerobically; Approved Standard” (NCCLS document M7-A6); NCCLS 2002, “Reference Method for Broth Dilution Antifungal Susceptibility Tests of Filamentous Fungi that Grow Aerobically; Approved Standard” (NCCLS document M38-A); and NCCLS 2002 “Reference Method for Broth Dilution Antifungal Susceptibility Tests of Yeast; Approved Standards-2nd Edition” (NCCLS document M27-A2). Using a checkerboard method, a 2-fold dilution 100× final concentration master plate was prepared using a 96-well U-shape microtiter plate and an appropriate solvent. In the “checkerboard” method, a microtiter plate is divided into “columns” in which each well in the column contains the same amount of an antifungal agent (Compound A) being diluted along the x-axis, and “rows” in which each well in the row contains the same amount of a glycopeptide antibacterial agent (Compound B) being diluted on the y-axis. Also included is a row (or column) for Compound A or B alone. The dilutions used in the checkerboard are exponential (by powers of two). The result is that each well in the microtiter plate contains a unique concentration of the two compounds being tested. […] After mixing, 100 μL of 2× drug combinations were distributed into 96-well microtiter plates. […] Compound A was not added to Column 12, so Column 12 contained only Compound B. Compound B was diluted from row A starting at 6,400 μg/mL down to row G (100 μg/mL). Wells in Row A contained a final concentration of 64 μg/mL of Compound B; Row B contained a final concentration of 32 μg/mL of Compound B; Row C contained a final concentration of 16 μg/mL of Compound B; etc. Compound B was not added to Row H, so Row H only contained Compound A. […] The MIC of the glycopeptide antibacterial agent determined from this experiment was used in FIC calculations. […] RPMI-1640 without sodium bicarbonate media (GIBCO-BRL, Carlsbad, Calif.), an enriched media formulated for mammalian cells, was used according to the NCCLS guidelines for yeast and filamentous fungi susceptibility testing. The medium was buffered with 0.165 M 3-[N-Morpholino]propanesulfonic acid (MOPS) supplemented with 20 g/L glucose and pH adjusted to 7.0 with hydrogen chloride. Sabouraud Dextrose Agar ([…] plates, and Potato Dextrose Agar (PDA) plates were purchased from Hardy Diagnostic (Santa Maria, Calif.). Yeast cultures were started from -80° C. frozen stock streaked on […] incubated at 35° C. under aerobic conditions for 24 h. The […] in the refrigerator for up to 2 weeks and used regularly as a starting culture. About 24 to 48 h before each assay was run, yeasts were streaked on SDA plates for isolated colonies. To prepare the inoculum, from one to four colonies were resuspended in 5 mL of saline, and vortexed for 15 sec. […] For most yeast and mold cultures, the optical density (OD) of the suspension was adjusted to 0.11 in saline to provide 0.4×10^6 CFU/mL. However, for Fusarium moniliforme and Pseudallescheria boydii the OD of the suspension was adjusted to OD=0.17 to provide 0.4×10^6 CFU/mL. […]

Experiment [2] has as its system C. tropicalis ATCC 750. Briefly: Checkerboard MIC assay, FICI. The class given is cell-based, Candida tropicalis.
Text: as §1

The test system of experiment [3] is C. albicans ATCC 24433. Briefly: Checkerboard MIC assay, FICI. Format: cell-based, Candida albicans.
Text: as §1

Experiment [4] has as its system C. parapsilosis ATCC 22019. Briefly: Checkerboard MIC assay, FICI. Format: cell-based, Candida parapsilosis.
Text: as §1

The test system of experiment [5] is C. glabrata ATCC 200918. Briefly: Checkerboard MIC assay, FICI. The class given is cell-based, Candida glabrata. The settings on record: combination with Compound 1. From the text:
The following assay was used to determine the minimum inhibitory concentration (MIC) and fractional inhibitory concentration index (FICI) for combinations of an antifungal agent and a glycopeptide antibacterial agent. This assay and methods for calculating FICI are well known in the art. See, for example, Eliopoulos, E. G. and R. Moellering, Jr. “Antimicrobial Combinations” in Antibiotics in Laboratory Medicine, edited by V. Lorian, 4th Ed., Williams & Wilkins, Baltimore, MD, pp. 330-396 (1996); […] et al., Antimicrobial Agents and Chemotherapy 47(4):1416-1418 (2003); or […] et al., Antimicrobial Agents and Chemotherapy 46(10):3323-3326 (2002). Procedures, protocols, supplies and equipment used in this assay follow the recommendations approved and published by the National Committee for Clinical Laboratory Standards (NCCLS), Wayne, Pa. as described in NCCLS 2003, “Reference Method for Broth Dilution Antimicrobial Susceptibility Tests for Bacteria that Grow Aerobically; Approved Standard” (NCCLS document M7-A6); NCCLS 2002, “Reference Method for Broth Dilution Antifungal Susceptibility Tests of Filamentous Fungi that Grow Aerobically; Approved Standard” (NCCLS document M38-A); and NCCLS 2002 “Reference Method for Broth Dilution Antifungal Susceptibility Tests of Yeast; Approved Standards-2nd Edition” (NCCLS document M27-A2). Using a checkerboard method, a 2-fold dilution 100× final concentration master plate was prepared using a 96-well U-shape microtiter plate and an appropriate solvent. In the “checkerboard” method, a microtiter plate is divided into “columns” in which each well in the column contains the same amount of an antifungal agent (Compound A) being diluted along the x-axis, and “rows” in which each well in the row contains the same amount of a glycopeptide antibacterial agent (Compound B) being diluted on the y-axis. Also included is a row (or column) for Compound A or B alone. The dilutions used in the checkerboard are exponential (by powers of two). The result is that each well in the microtiter plate contains a unique concentration of the two compounds being tested. […] After mixing, 100 μL of 2× drug combinations were distributed into 96-well microtiter plates. […] Compound A was not added to Column 12, so Column 12 contained only Compound B. Compound B was diluted from row A starting at 6,400 μg/mL down to row G (100 μg/mL). Wells in Row A contained a final concentration of 64 μg/mL of Compound B; Row B contained a final concentration of 32 μg/mL of Compound B; Row C contained a final concentration of 16 μg/mL of Compound B; etc. Compound B was not added to Row H, so Row H only contained Compound A. […] The MIC of the glycopeptide antibacterial agent determined from this experiment was used in FIC calculations. […]

In experiment [6] the test system is various strains of fungi. Briefly: Assay for determining MIC and FICI, summary over strains. The settings on record: combination with amphotericin B. The class given is cell-based. From the text: The following assay was used to determine the minimum inhibitory concentration (MIC) and fractional inhibitory concentration index (FICI) for combinations of an antifungal agent and a glycopeptide antibacterial agent. This assay and methods for calculating FICI are well known in the art. See, for example, Eliopoulos, E. G. and R. Moellering, Jr. “Antimicrobial Combinations” in Antibiotics in Laboratory Medicine, edited by V. Lorian, 4th Ed., Williams & Wilkins, Baltimore, MD, pp. 330-396 (1996); Shalit et al., Antimicrobial Agents and Chemotherapy 47(4):1416-1418 (2003); or Afeltra et al., Antimicrobial Agents and Chemotherapy 46(10):3323-3326 (2002).
Procedures, protocols, supplies and equipment used in this assay follow the recommendations approved and published by the National Committee for Clinical Laboratory Standards (NCCLS), Wayne, Pa. as described in NCCLS 2003, “Reference Method for Broth Dilution Antimicrobial Susceptibility Tests for Bacteria that Grow Aerobically; Approved Standard” (NCCLS document M7-A6); NCCLS 2002, “Reference Method for Broth Dilution Antifungal Susceptibility Tests of Filamentous Fungi that Grow Aerobically; Approved Standard” (NCCLS document M38-A); and NCCLS 2002 “Reference Method for Broth Dilution Antifungal Susceptibility Tests of Yeast; Approved Standards-2nd Edition” (NCCLS document M27-A2). […]

Where [7] appears, read: combination with Amphotericin B, C. krusei 32672.
[8] abbreviates: combination with Amphotericin B, C. tropicalis 750.
[9] abbreviates: combination with Amphotericin B, C. albicans 24433.
Where [10] appears, read: combination with Amphotericin B, C. parapsilosis 22019.
[11] abbreviates: combination with Compound 1, C. krusei ATCC 32672.
[12] abbreviates: combination with Compound 1, C. tropicalis ATCC 750.
Where [13] appears, read: combination with Compound 1, C. albicans ATCC 24433.
[14] abbreviates: combination with Compound 1, C. parapsilosis ATCC 22019.

Take `CCCCCCCCCCNCCN[C@@]1(C)C[C@H](O[C@H]2[C@H](Oc3c4cc5cc3Oc3ccc(cc3Cl)[C@@H](O)[C@@H](NC(=O)[C@@H](CC(C)C)NC)C(=O)N[C@@H](CC(N)=O)C(=O)N[C@H]5C(=O)N[C@H]3C(=O)N[C@H](C(=O)N[C@H](C(=O)O)c5cc(O)c(CNCP(=O)(O)O)c(O)c5-c5cc3ccc5O)[C@H](O)c3ccc(c(Cl)c3)O4)O[C@H](CO)[C@@H](O)[C@@H]2O)O[C@@H](C)[C@H]1O` [Compound 1, telavancin]: the FICI in experiment [1] (setting [7]), in experiment [2] (setting [8]), in experiment [3] (setting [9]) and in experiment [4] (setting [10]) was 0.31 throughout.

In the case of `C[C@@H](c1ncncc1F)[C@](O)(Cn1cncn1)c1ccc(F)cc1F` [Voriconazole, voriconazole], the FICI in experiment [5] and in experiment [1] (setting [11]) was 1.13 in each case.

Teicoplanin: the FICI is given as 0.38 in experiment [1] (setting [7]), 0.38 in experiment [2] (setting [8]), 0.53 in experiment [3] (setting [9]) and 0.38 in experiment [4] (setting [10]).

For `CN[C@H](CC(C)C)C(=O)N[C@H]1C(=O)N[C@@H](CC(N)=O)C(=O)N[C@H]2C(=O)N[C@H]3C(=O)N[C@H](C(=O)N[C@H](C(=O)O)c4cc(O)cc(O)c4-c4cc3ccc4O)[C@H](O)c3ccc(c(Cl)c3)Oc3cc2cc(c3O[C@@H]2O[C@H](CO)[C@@H](O)[C@H](O)[C@H]2O[C@H]2C[C@](C)(N)[C@H](O)[C@H](C)O2)Oc2ccc(cc2Cl)[C@H]1O` [Vancomycin], the FICI in experiment [1] (setting [7]), in experiment [2] (setting [8]), in experiment [3] (setting [9]) and in experiment [4] (setting [10]) was 2.00 throughout. Besides, the “effect of the combination” value in experiment [6] is listed as “not synergistic or additive”.

As for `OC(Cn1cncn1)(Cn1cncn1)c1ccc(F)cc1F` [Fluconazole], the FICI in experiment [5], in experiment [1] (setting [11]), in experiment [2] (setting [12]), in experiment [3] (setting [13]) and in experiment [4] (setting [14]) was 2.00 throughout.

For `Clc1ccc(COC(Cn2ccnc2)c2ccc(Cl)cc2Cl)c(Cl)c1` (centres unmarked) [Miconazole, miconazole], the FICI in experiment [2] (setting [12]), in experiment [3] (setting [13]) and in experiment [4] (setting [14]) was 2.00 each time.
